The source of these data is a melting point compilation (Tetko et al.; mined from patent text by program, amines drawn as free bases though some values may be those of a salt).

The term melting point denotes the temperature, or range, at which the solid turns liquid.

As to `CCOC(=O)c1cn(C2CC2)c2nc(N3C[C@@H](CN(C)C(=O)C(F)(F)F)[C@@H](F)C3)c(F)cc2c1=O` (relative stereo), the melting point is 177 to 179 °C. The value for `C=CCONC(O)(CC)C1C(=O)C=C(CC)OC1=O` (centres undefined) was 62.5 to 64 °C; that for `CONCc1nc2cnc3ccccc3c2n1CC1CCOCC1` was 58 to 63 °C; that for `COCc1c(CNS(=O)(=O)c2cccc(Cl)c2)nn(-c2ccc(Cl)cc2Cl)c1-c1ccc(Cl)cc1` was 154 °C. The figure for `COc1ccc(F)c(C(=O)O)c1` is 144 to 146 °C; for `CCOc1ccc(C(=O)O)c(Cl)n1` it is 185 to 188 °C. The figure for `O=C(CCN1CCNCC1)Nc1ccc2c(c1)C(=O)c1cc(NC(=O)CCN3CCNCC3)ccc1C2=O` is 218 °C; for `COc1ccc(S(=O)(=O)Nc2nsc(-c3ccc(Cl)cc3)n2)cc1OC` it is 220 to 221 °C. The compound `NC(=O)CCc1cc(C(=O)O)cc(S(N)(=O)=O)c1Oc1ccccc1` showed a melting point of 192 to 196 °C. The compound `COc1ccc(C(=O)O)c(OCCN2CCC(c3cn(Cc4ccoc4)c4ncccc34)CC2)c1` had a melting point of 91.5 to 93.2 °C.

Regarding `FC(F)(F)CNC(=S)NCC(F)(F)F`, the melting point fell in the range of 152 to 153 °C.

Regarding `CCOC(=O)Cc1c(-c2ccccc2)c2cc(C)c(Cl)cc2oc1=O`, the melting point was in the range of 132 to 133 °C. The value for `O=C(c1cc(F)ccc1C(F)(F)F)N1CCN(c2ccc(-c3ncc(-c4ccccc4)o3)nn2)CC1` was 122 to 125 °C; that for `O=C(COc1ccc(-c2ccccc2)cc1)Nc1cscc1C(=O)O` was 247 to 251 °C. The figure for `Nc1ncnc2c1ncn2CCO` is 236 °C; for `CC(CC(=O)O)=NNC(=N)N` it is 139 to 140 °C.

In turn, `CCOP(=O)(CCOC(=O)c1c(I)c(NC(C)=O)c(I)c(NC(C)=O)c1I)OCC` showed a melting point of 249 to 251 °C. The figure for `Cn1c(N=C=O)c(-c2ccccc2)c2cc([N+](=O)[O-])ccc21` is > 250 °C. The figure for `C/C(=C\CCC1(C)CCc2cc(O[Si](C)(C)C(C)(C)C)c(C)c(C)c2O1)CCl` (centres undefined) is 56 to 58 °C; for `CC#Cc1ccc(-c2ccc(-c3ccc(CCCCC)cc3)c(F)c2F)cc1` it is 103 °C. The figure for `CC1(C)CCC(C)(C)c2cc(-c3nc4ccc(C(=O)O)cc4s3)ccc21` is 292 to 293 °C; for `Cc1cc(N)c(C(=O)Cc2nnnn2C)cc1C` it is 162 to 165 °C; for `O=C1CCC2=C1C(c1ccc3nonc3c1)C1=C(CCC1=O)N2` it is 272 to 273 °C.

Compound `CCCNC(=O)c1nc(-c2ccccc2)c(-c2ccc(=O)n(C(C)C)n2)s1` displayed a melting point of 141 to 142 °C. In the case of `CN1CCC(c2c[nH]c3ccc(NC(=O)C4CCCC4)nc23)CC1`, the melting point is 119 to 121 °C. The value for `COC(=O)C(=CNc1ccc(F)cc1)C(=O)C=Cc1ccc(NC(C)=O)cc1` was 161 to 164 °C. The figure for `Cc1cccc(C(=O)c2[nH]c3cc(Cl)ccc3c2NC(N)=O)c1` is > 280 °C; for `COc1ccc2c(c1)SC(C#N)C(=O)CO2` (centres undefined) it is 132 to 133 °C; for `CCc1ccccc1OC(CC)C(=O)OC1CC(O)C=C2C=CC(C)C(CCC3CC(O)CC(=O)O3)C21` (mixture of isomers) it is 108 to 110 °C. `CCO[C@@H](Cc1ccc2c(ccn2Cc2nc(-c3ccccc3OC)oc2C)c1)C(=O)O` displayed a melting point of 59 to 60 °C.

Consider `CC(CN1CCC(c2noc3cc(F)ccc23)CC1)N1Cc2ccccc2C1` (centres undefined), for which the melting point lay in the range of 164 to 165 °C. The value for `CCCCCCCCCCCCCCCCCCNC(=O)NCCSc1ccc(O)cc1` was 121 °C; that for `O=C1CC2(CCCC2)CC(=O)N1CCCCN(c1ccncc1)n1c2ccccc2c2ccccc21` was 90 to 92 °C; that for `COc1ccc(C2=NN(c3ccccc3C)C(=O)[C@H]3CC=CC[C@@H]23)cc1OC` (relative stereo) was 144 to 145 °C.

`COCOC1CCC2(C)C(=CCC3C2CCC2(C)C(COCc4ccccc4)CCC32)C1` (centres undefined): the melting point was in the range of 75 to 76 °C. The value for `CCn1cc(CN(C(=O)C2CCCc3c(O)cccc32)c2ccc(C(C)C)nc2)cn1` (centres undefined) was 173 °C; that for `O=C(O)[C@@H]1C[C@@H](C(=O)O)N(C(=O)OCc2ccccc2)C1` was 98 to 100 °C; that for `O=C(Cl)Cc1ccc(-c2ccc(F)cc2F)c(F)c1` was 70 to 73 °C. The value for `CC(=C1SCCCS1)c1cccc(O)c1` was 63 to 64 °C; that for `Cn1c(C(F)(F)F)cc(=O)n(-c2cc(OC(=O)CCl)c(Cl)cc2F)c1=O` was 89 to 92 °C. The value for `O=C(Cc1ccc2ccn(C3CCN(CCc4ccccc4F)CC3)c2c1)NCCO` was 128 to 129 °C. `Cc1[nH]c(-c2ccccc2F)c(C)c1C#N`: the melting point lay in the range of 125 to 127 °C. In turn, `Cc1oc2cc(C3CCNC(=O)C3)ccc2c1C` (centres undefined) registered a melting point of 195 to 197 °C. The figure for `CCc1cc(C#N)c(=O)[nH]c1C` is 237 to 240 °C; for `NCc1nc(-c2ccc(-c3cnc4[nH]c(=O)n(CCC5CCOCC5)c4n3)cc2)n[nH]1` it is 258 to 260 °C; for `Cc1cccc(C(=O)N2CCC3(CC2)CSC2=C(O3)c3ccccc3C(=O)C2=O)c1` it is 188 to 190 °C. The figure for `CCN(C(=O)OC(C)(C)C)c1cn(-c2cccnc2)nc1Cl` is 55 to 58 °C; for `C=COCCn1c(CN2CCN(C)CC2)nc2ccccc21` it is 65.5 to 67.5 °C. The figure for `NS(=O)(=O)c1cc(C(=O)NNc2ccccc2)ccc1Cl` is 189 to 190 °C; for `CCCOc1ccc2nc(NC(=O)OCC)sc2c1` it is 175 to 177 °C.

Compound `CCOC(=O)CC(=O)NCc1ccccc1` gave a melting point of 50 to 52 °C. The figure for `C[C@H](NC(=O)OCc1ccccc1)C(=O)N1CCC[C@H]1C(=O)NC1CCCC1` is 118 to 119 °C.

Compound `CCOC(=O)c1ccc(-c2cccc(O)c2)cc1` came in with a melting point of 76 °C. With `COc1cc(Nc2c(C#N)cnc3cc(/C=C/CCCCCCCCCN4CCOCC4)c(OC)cc23)c(Cl)cc1Cl`, the melting point fell in the range of 98 to 99 °C. The value for `Cc1ccc(S(=O)(=O)NCc2ccccc2)cc1` was 115 to 116 °C. For `COc1cc(I)c(F)cc1Cl`, the melting point is 90 to 94 °C.

In turn, `CCOC(=O)c1cn(CC)nc1OCc1ccc(OCc2nc(-c3ccco3)oc2C)c(OC)c1` had a melting point of 114 to 115 °C. The value for `CCCS(=O)(=O)N=C(NC)NCCSCc1[nH]cnc1C` was 73 to 74 °C; that for `C=CCc1c(O)c(Br)cc2c1[C@H](CCNC(=O)CC)CC2` was 85 to 87 °C; that for `OCC1OC(n2cnc3c(SCc4ccccc4)cc(Cl)nc32)C(O)C1O` (centres undefined) was 154 to 156 °C. The value for `O[C@H](COc1cccc2[nH]ccc12)CN1CC=C(c2c[nH]c3cc(F)ccc23)CC1` was 95 to 100 °C. The figure for `CCCCOC(=O)c1ccc(OC(=O)C(=O)Oc2ccc(C(=O)OCCCC)cc2)cc1` is 100 to 102 °C. `COc1ccc2[nH]cc(SCCN=C3CCCN3C)c2c1`: the melting point fell in the range of 154 to 157 °C. Compound `O=C1CC(c2cccc(-n3ccnn3)c2)=Nc2ccc(-c3ccccc3F)cc2N1` yielded a melting point of 209 to 212 °C.

Compound `CS(=O)(=O)c1ccc(CN2C(=O)C3(COc4cc5c(cc43)OCO5)c3ccccc32)o1` (centres undefined) displayed a melting point of 177 to 179 °C. Take `CCCCCCCCCC(=O)OC1CCC2C3CCC4=CC(=O)CCC4C3CCC12CC` (centres undefined): the melting point fell in the range of 97 to 97.5 °C. The value for `COc1ccc2c(=O)n(S(=O)(=O)c3ccc(C)cc3)c(=O)[nH]c2c1` was 228 to 231 °C; that for `O=c1c2cccc(Cl)c2nc2n1CCCO2` was 207 to 208 °C. The value for `N#CN=C(Nc1ccc([N+](=O)[O-])cc1O)Nc1ccccc1Cl` was 163 to 164 °C; that for `Nc1ccccc1C(=O)C1CCC1` was 55 °C.

On to `NC(=O)Cc1cc(Oc2ccc3c(ccn3C(=O)Nc3cc(N4CCOCC4)cc(C(F)(F)F)c3)c2)ncn1`, for which the melting point lay in the range of 144 to 146 °C. `CN1c2ccccc2CC1c1ccccc1NC(=O)C(C)(C)C` (centres undefined): the melting point was in the range of 133 to 135 °C. For the compound `COC(=O)C(CCCN(C)CCc1ccc(OC)c(OC)c1)c1ccc(OC)c(OC)c1` (centres undefined), the melting point lay in the range of 112 to 114 °C. `O=c1[nH]c2ccccc2n1CCCCCCCl`: the melting point is 80 to 84 °C. The compound `O=C(O)c1ccc2c(c1)Sc1ccccc1S2` returned a melting point of 220 °C. `CN1C(C(=O)Nc2ccc(F)cc2)=C(O)c2ccc3ccccc3c2S1(=O)=O` registered a melting point of 284 to 285 °C. The value for `CCOC(=O)C(=CNc1ccnc(-c2ccccn2)n1)C(=O)OCC` was 162 to 164 °C; that for `Cc1cccc(C)c1-c1nc2ccccc2n2cncc12` was 115 to 125 °C; that for `COC(=O)c1coc(CN2C(=O)C3(COc4cc5c(cc43)OCO5)c3ccccc32)n1` (centres undefined) was 183 to 185 °C.

For the compound `CCc1nc2c(cnn2CC)c(NC2CCOCC2)c1CNC(=O)c1cc(C)cc(C(=O)NCc2cccc(Br)c2)c1`, the melting point lay within 116 to 118 °C. The value for `CC1(C)CCCN(C(=O)c2ccccc2NC(=O)CN2C(=O)c3ccccc3C2=O)C1` was 158 °C; that for `O=S(O)c1ccc2c(c1)CCCC2` was 82 to 85 °C. The value for `C=C(C)Cc1cc(C=O)cc(OCC)c1O` was 85 to 86 °C; that for `CCOC(=O)NNC(=O)Cc1c(C)cc(C)cc1C` was 184 to 186 °C. The figure for `CNC(=O)OCc1c(COC(=O)NC)c(-c2ccc(OC)cc2)n2c1Cc1ccccc1C2` is 182 to 184 °C. As to `CN(C)CCNC(=O)c1cccc2c1c(C(=O)C(=O)NC1=CC(=O)OC1)cn2Cc1ccc(Cl)cc1`, the melting point was 225 to 227 °C. `N#Cc1ccc(C=CC(=O)N2CCc3c([nH]c4ccccc34)C2c2ccc3c(c2)OCO3)cc1` (centres undefined) came in with a melting point of 167 °C. The figure for `COc1ccc(-c2ccc(C(F)(F)CC(CC(O)CSc3ccccc3)C(=O)O)cc2)cc1` (centres undefined) is 85 to 86 °C; for `Cc1cc(=O)oc2nn(C(C)C)c(C)c12` it is 164 to 166 °C.
